For data set [1], the target named is T1, AHR (Homo sapiens, UniProt P35869).
T1 sequence (P35869 11-848): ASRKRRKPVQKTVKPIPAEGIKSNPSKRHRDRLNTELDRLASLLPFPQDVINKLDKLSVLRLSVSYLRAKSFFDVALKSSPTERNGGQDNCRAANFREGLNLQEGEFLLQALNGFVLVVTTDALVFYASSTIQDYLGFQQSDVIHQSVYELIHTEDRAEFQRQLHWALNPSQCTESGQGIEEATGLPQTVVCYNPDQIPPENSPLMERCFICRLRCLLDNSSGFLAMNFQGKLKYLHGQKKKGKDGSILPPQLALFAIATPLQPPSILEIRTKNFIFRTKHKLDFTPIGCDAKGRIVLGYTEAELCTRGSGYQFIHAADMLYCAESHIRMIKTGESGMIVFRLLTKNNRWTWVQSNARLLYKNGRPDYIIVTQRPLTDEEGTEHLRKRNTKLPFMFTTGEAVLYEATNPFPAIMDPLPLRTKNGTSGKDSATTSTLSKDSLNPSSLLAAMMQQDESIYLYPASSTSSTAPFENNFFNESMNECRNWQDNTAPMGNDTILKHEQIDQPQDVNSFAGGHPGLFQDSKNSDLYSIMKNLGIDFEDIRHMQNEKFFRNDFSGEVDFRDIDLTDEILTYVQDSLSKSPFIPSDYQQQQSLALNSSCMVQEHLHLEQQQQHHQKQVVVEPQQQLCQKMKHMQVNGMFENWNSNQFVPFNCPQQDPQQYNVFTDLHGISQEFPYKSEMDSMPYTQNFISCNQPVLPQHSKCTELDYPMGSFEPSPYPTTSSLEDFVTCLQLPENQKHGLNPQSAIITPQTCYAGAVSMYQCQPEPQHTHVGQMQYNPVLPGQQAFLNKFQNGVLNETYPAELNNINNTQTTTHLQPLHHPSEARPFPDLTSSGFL
The data set is described as follows: CYP1B1 gene expression in human whole blood exposed ex vivo. It counts as cell-based. Also noted: endogenous in cells. Particulars: Compound A concentrations >0.5 μM; both donors; basal and ligand activated (L-kynurenine) conditions; 24 hours. The procedure:
To further examine the effects of Compound A on basal and ligand-activated AHR-dependent gene expression in human immune cells, blood samples from 2 healthy human donors were exposed ex vivo to Compound A in the presence or absence of […] L-kynurenine to activate AHR. After 24 hours, cells were evaluated for CYP1B1 gene expression. […] In both donors, Compound A concentrations >0.5 μM inhibited CYP1B1 gene expression by greater than 50% under basal and ligand activated conditions.

Data set [2] addresses T1, AHR. The data set can be described thus: Selectivity for AHR over other receptors, transporters, and kinases.
Data set [3] deals with AHR (Macaca fascicularis, UniProt A0A7N9CQA9). The data set is described as follows: AHR-dependent gene expression in cynomolgus PBMCs (Quantigene Plex). In kind it is cell-based, cynomolgus macaque. Particulars: cynomolgus PBMCs ex vivo. The procedure:
The effect of Compound A on AHR-dependent gene expression was assessed in peripheral blood mononuclear cells (PBMCs) of cynomolgus macaque monkeys to assess activity in the non-rodent tox species. Cynomolgus PBMCs were treated ex vivo with Compound A and gene expression of AHR-dependent genes CYP1B1 and AHR was quantified using Quantigene Plex (QGP) custom panels.

Data set [4] concerns the target T2, AHR (Mus musculus, UniProt P30561).
T2 sequence (P30561 10-805): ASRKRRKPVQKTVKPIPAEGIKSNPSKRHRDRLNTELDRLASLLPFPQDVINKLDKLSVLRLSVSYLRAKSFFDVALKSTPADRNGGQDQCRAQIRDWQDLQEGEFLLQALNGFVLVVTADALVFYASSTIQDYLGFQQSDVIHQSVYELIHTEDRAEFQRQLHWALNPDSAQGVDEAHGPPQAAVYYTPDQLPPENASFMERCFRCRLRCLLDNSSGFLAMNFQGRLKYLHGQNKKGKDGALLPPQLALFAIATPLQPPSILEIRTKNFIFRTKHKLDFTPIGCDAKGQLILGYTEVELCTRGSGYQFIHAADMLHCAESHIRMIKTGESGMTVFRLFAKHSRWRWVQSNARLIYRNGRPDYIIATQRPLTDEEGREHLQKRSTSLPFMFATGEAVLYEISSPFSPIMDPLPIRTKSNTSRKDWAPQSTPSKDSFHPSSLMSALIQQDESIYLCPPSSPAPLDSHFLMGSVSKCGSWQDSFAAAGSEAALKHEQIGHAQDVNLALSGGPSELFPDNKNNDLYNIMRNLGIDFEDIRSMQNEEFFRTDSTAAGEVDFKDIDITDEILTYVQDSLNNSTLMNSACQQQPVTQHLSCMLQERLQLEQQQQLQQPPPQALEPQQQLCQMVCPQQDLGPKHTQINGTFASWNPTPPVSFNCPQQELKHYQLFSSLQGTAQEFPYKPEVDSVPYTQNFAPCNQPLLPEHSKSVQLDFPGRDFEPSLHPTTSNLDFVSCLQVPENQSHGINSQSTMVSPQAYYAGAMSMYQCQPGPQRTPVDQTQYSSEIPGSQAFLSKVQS
The data set is described as follows: Pharmacodynamics: CYP1A1 mRNA in murine liver and spleen after VAG539. It counts as in vivo.
Description: Mice were sacrificed at 4 and 10 hours postdose and RNA was extracted and gene expression of CYP1A1 and the housekeeping gene mouse glyceraldehyde 3-phosphate dehydrogenase were quantified. CYP1A1 mRNA expression levels for each dose group for liver and spleen tissues were normalized to the control group.

The nature of data set [5]: Nonclinical safety studies in rat (incl. 28-day GLP). In kind it is in vivo.
Data set [6] in a line: Nonclinical safety studies in monkeys (incl. 28-day GLP). It counts as in vivo, monkey.
For data set [7], the system named is human T cells. The data set can be described thus: Human T cell assays (summary). In kind it is cell-based. The procedure:
AHR plays a key role in immune cells and its' inhibition is proposed to reverse immune suppression and activate T cells. The ability of Compound A to inhibit AHR-dependent CYP1A1 expression and cytokine production was assessed in primary human T cells. AHR directly regulates the expression of the immune suppressive cytokine IL-22. Human T cells isolated from healthy donor PBMCs were activated with CD3/CD28 tetramer and incubated for 24 hours with Compound A. Cell pellets were processed for RNA isolation and CYP1A1 analysis by quantitative reverse-transcriptase polymerase chain reaction. For the cytokine analysis assay, CD3/CD28 activated T cells were treated with Compound A, and culture supernatants were collected after 48 hours for analysis of IL-22 levels using Meso Scale Discovery V-plex IL-22 plates. Compound A inhibited AHR-dependent gene expression in activated human T cells by decreasing expression of CYP1A1 in a concentration--dependent manner.

pIC50: −log10 of the molar value. “Also recorded” adds a separate entry of the source. Like-named read-outs stand apart in the source and are kept apart here.

Sequence of AHR (Macaca fascicularis, UniProt A0A7N9CQA9) (A0A7N9CQA9 entry or part of it): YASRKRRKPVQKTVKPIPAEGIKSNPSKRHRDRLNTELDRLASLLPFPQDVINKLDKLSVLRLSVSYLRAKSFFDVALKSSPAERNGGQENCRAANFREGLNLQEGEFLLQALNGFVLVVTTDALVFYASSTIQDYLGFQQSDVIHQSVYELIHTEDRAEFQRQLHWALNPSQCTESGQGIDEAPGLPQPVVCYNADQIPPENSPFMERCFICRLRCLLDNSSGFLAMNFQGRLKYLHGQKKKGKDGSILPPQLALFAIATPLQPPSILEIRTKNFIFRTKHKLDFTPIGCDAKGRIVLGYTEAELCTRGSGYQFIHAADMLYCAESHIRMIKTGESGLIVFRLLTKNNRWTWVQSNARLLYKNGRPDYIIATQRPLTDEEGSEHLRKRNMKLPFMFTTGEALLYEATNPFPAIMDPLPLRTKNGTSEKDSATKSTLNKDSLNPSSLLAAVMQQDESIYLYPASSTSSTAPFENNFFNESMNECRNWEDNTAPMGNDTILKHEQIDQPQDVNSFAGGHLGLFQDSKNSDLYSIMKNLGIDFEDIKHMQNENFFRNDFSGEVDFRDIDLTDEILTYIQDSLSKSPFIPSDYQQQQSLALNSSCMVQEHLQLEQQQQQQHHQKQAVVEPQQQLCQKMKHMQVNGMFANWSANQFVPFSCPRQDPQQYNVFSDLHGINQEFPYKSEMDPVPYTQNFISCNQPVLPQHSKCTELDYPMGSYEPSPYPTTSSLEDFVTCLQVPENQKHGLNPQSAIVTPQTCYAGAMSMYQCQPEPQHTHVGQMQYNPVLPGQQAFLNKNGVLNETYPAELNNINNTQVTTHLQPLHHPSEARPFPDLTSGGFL

Turning to `CC(C)c1cnn2c(N[C@@H]3CCc4[nH]c5ccccc5c4C3)nc(-c3cncc(F)c3)nc12` [Compound A, (R)—N-(2-(5-fluoropyridin-3-yl)-8-isopropylpyrazolo[1,5-a][1,3,5]triazin-4-yl)-2,3,4,9-tetrahydro-1H-carbazol-3-amine], in data set [1], the “inhibition of CYP1B1 gene expression” value is listed as “greater than 50%”. Further, the “selectivity for AHR over other receptors, transporters, and kinases” value in data set [2] is “highly selective”. Besides, in data set [3] (read-out: IC50, inhibition of AHR target gene AHR), the pIC50 was 7.52. In addition, in data set [3] (read-out: IC50, inhibition of AHR target gene Cyp1B1), the pIC50 was 8.22. Also, in data set [4] (25 mg/kg Compound A oral with VAG539, at 4 hours), the “inhibition of CYP1A1 mRNA induction, spleen” value is on record as “complete inhibition”. Moreover, the “inhibition of CYP1A1 mRNA increases induced by VAG539, liver” value in data set [4] (25 mg/kg Compound A oral, coadministered with 30 mg/kg VAG539) is “Complete inhibition”. Further, the “noteworthy findings (rats)” value in data set [5] was “non-glandular stomach ulceration and edema; also recorded: seminiferous tubule degeneration and debris in the epididymis lumen”. Moreover, in data set [6] (monkey), the “noteworthy findings (monkey)” value was “decreased thymus weights and cortical lymphocytes”. For the same molecule, the QTc prolongation entry in data set [6] (monkeys) is listed as “up to 11%”. In addition, in data set [7], the T cell state entry is reported as “induces an activated T cell state”; the “pro-inflammatory cytokines, such as IL-2 and IL-9” value is “increase”.

The values above are taken from patent publication US20240148740A1, “COMBINATION OF AN AHR INHIBITOR WITH A PDX INHIBITOR OR DOXORUBICINE” (Ikena Oncology, Inc., priority 2020, published 2024).
